Assay results published in publication PMC11191095, “QSAR Reveals Decreased Lipophilicity of Polar Residues Determines the Selectivity of Antimicrobial Peptide Activity” (ACS Omega, 2024).
Where “and” joins values, the source holds several entries; their conditions need not be identical. Equal entries are not always repeated. Where a SMILES comes first, the peptide text is derived from it.

Legend:
[1] = system: S. aureus (MRSA) NCTC 13616; assay: microbe, parasite or virus in culture; type: cell-based, Staphylococcus aureus
How it was run: (§1)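 Peptides 128→2 μg/mL, 2-fold series; inoculum ~5 × 10^5 CFU/mL from overnight culture (OD600 0.01, mixed 1:1). MHB non-cation-adjusted for bacteria, RPMI 1640 + 2% glucose for fungi. 37 °C, 20 h, OD600. MIC50/MIC90 at 50%/90% inhibition; n ≥ 3.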

S. aureus (MRSA) USA300 = assay: microbe, parasite or virus in culture; type: cell-based, Staphylococcus aureus
How it was run: as §1

[2] = system: S. aureus (MSSA) ATCC 9144; assay: microbe, parasite or virus in culture; type: cell-based, Staphylococcus aureus
How it was run: as §1

C. glabrata NCPF 8018 = assay: microbe, parasite or virus in culture; type: cell-based
How it was run: as §1

C. albicans NCPF 3281 = assay: microbe, parasite or virus in culture; type: cell-based
How it was run: as §1

[3] = system: C. parapsilosis NCPF 3209; assay: microbe, parasite or virus in culture; type: cell-based
How it was run: as §1

C. krusei NCPF 3876 = assay: microbe, parasite or virus in culture; type: cell-based
How it was run: as §1

C. tropicalis NCPF 8760 = assay: microbe, parasite or virus in culture; type: cell-based
How it was run: as §1

C. auris TDG 1912 = assay: microbe, parasite or virus in culture; type: cell-based, Candida auris
How it was run: as §1

HaCat cell line = assay: In vitro HaCat cytotoxicity (MTT); type: cell-based, human; settings: 21 h exposure, OD570, relative to untreated control
Method: The HaCat cell line (Cellonex, South Africa) was cultured in Dulbecco’s Modified Eagle Medium (DMEM) supplemented with 10% heat-inactivated fetal calf serum (FCS) and 1% antibiotic-antimycotic (Abs) and maintained at 5–10% CO2, 37 °C, 95% humidity. For cytotoxicity screening, 5.56 × 10^4 cells/mL were plated in a 96-well plate. After 24 h incubation, the cells are initially exposed to each peptide at a concentration of 256 μg/mL or 0.1% Triton-X-100 as the control for 21 h. If cytotoxicity was observed, at a level of significance of p < 0.0001 compared with the untreated control after 21 h, a dose-response assay was undertaken. Cell viability was determined by adding 10% 3-(4,5-dimethyl-2-thiazolyl)-2,5-diphenyl-2H-tetrazolium bromide (MTT) (1 mg/mL), to each well and after a further 3 h incubation the media was discarded, and the formazan crystals dissolved by adding 25% DMSO in ethanol. The absorbance was measured at OD570 by using the FLUOstar Omega multidetection microplate reader (BMG Labtech). Percentage cell viability was calculated relative to the untreated control. The LC50 was defined as the concentration of AMP treatment that results in 50% lethality of HaCat cells and was determined from the dose-response curves.

E. coli LEC001 = assay: microbe, parasite or virus in culture; type: cell-based, Escherichia coli
How it was run: as §1

E. coli NCTC 12923 = assay: microbe, parasite or virus in culture; type: cell-based, Escherichia coli
How it was run: as §1

P. aeruginosa NCTC 13437 = assay: microbe, parasite or virus in culture; type: cell-based, Pseudomonas aeruginosa
How it was run: as §1

A. baumannii ATCC 17978 = assay: microbe, parasite or virus in culture; type: cell-based, Acinetobacter baumannii
How it was run: as §1

A. baumannii AYE = assay: microbe, parasite or virus in culture; type: cell-based, Acinetobacter baumannii
How it was run: as §1

K. pneumoniae M6 = assay: microbe, parasite or virus in culture; type: cell-based, Klebsiella pneumoniae
How it was run: as §1

K. pneumoniae NCTC 13368 = assay: microbe, parasite or virus in culture; type: cell-based, Klebsiella pneumoniae
How it was run: as §1

S. aureus (MRSA) 1199B = assay: microbe, parasite or virus in culture; type: cell-based, Staphylococcus aureus; settings: S. aureus (MRSA) 1199B (R); shown in µM
How it was run: as §1

human erythrocytes = assay: In vitro hemolytic activity; type: cell-based; settings: human erythrocytes in PBS, 1 h, 37 °C, OD550; from dose response curves
Method: Potential erythrocyte hemolysis was tested by incubating serial dilutions of the AMPs in PBS with freshly collected erythrocytes at a ratio of 1:1 in 96-well polypropylene V-shape plates for 1 h at 37 °C. Control wells were treated with 0.1% Triton-X-100 to ensure complete lysis or PBS-only to represent no lysis. The erythrocytes were collected by centrifugation and the OD550 of the supernatant was measured using a plate reader. The percentage hemolysis was calculated as [drawing 1] 1 where Apeptide is the absorbance value of erythrocytes exposed to a known peptide concentration, Agrowth control is the absorbance of erythrocytes exposed to 0.1% Triton-X-100 and Ablank is the absorbance of erythrocytes exposed to the PBS. The concentrations at which a peptide caused 10% (HC10) and 50% (HC50) hemolysis was determined from the dose response curves.

P. aeruginosa PAO1 = assay: microbe, parasite or virus in culture; type: cell-based, Pseudomonas aeruginosa; settings: P. aeruginosa PAO1 (S); shown in µM
How it was run: as §1

[4] = C. glabrata NCPF 8018, shown in µM
[5] = C. albicans NCPF 3281, shown in µM
[6] = C. parapsilosis NCPF 3209, shown in µM
[7] = C. krusei NCPF 3876, shown in µM
[8] = C. tropicalis NCPF 8760, shown in µM

CC[C@H](C)[C@H](NC(=O)[C@H](CCCCN)NC(=O)[C@H](CC(C)C)NC(=O)[C@H](C)NC(=O)[C@H](C)NC(=O)[C@H](CCCCN)NC(=O)[C@H](CC(C)C)NC(=O)[C@H](C)NC(=O)[C@H](CCCCN)NC(=O)CNC(=O)[C@H](CC(C)C)NC(=O)[C@H](Cc1ccccc1)NC(=O)[C@H](CO)NC(=O)CNC(=O)[C@H](Cc1ccccc1)NC(=O)CN)C(=O)NCC(=O)N[C@@H](C)C(=O)N[C@@H](CC(N)=O)C(=O)N[C@H](C(=O)N[C@@H](CC(C)C)C(=O)NCC(=O)NCC(=O)N[C@@H](C)C(=O)N1CCC[C@H]1C(=O)N[C@@H](CCC(N)=O)C(=O)N[C@@H](CCC(N)=O)C(=O)O)C(C)C [CPF-P3] (H-GFGSFLGKALKAALKIGANVLGGAPQQ-OH)
Modal MIC ([1]; NCTC 13616, 20 h): 1.5 µM | Modal MIC (S. aureus (MRSA) USA300; USA300, 20 h): 2.9 µM | Modal MIC ([2]; ATCC 9144, 20 h): 1.5 µM | Modal MIC50 (C. glabrata NCPF 8018; NCPF 8018, 20 h): > 47 µM | Modal MIC90 (C. glabrata NCPF 8018; NCPF 8018, 20 h): > 47 µM | Modal MIC50 (C. albicans NCPF 3281; NCPF 3281, 20 h): > 47 µM | Modal MIC90 (C. albicans NCPF 3281; NCPF 3281, 20 h): > 47 µM | Modal MIC50 ([3]; NCPF 3209, 20 h): > 47 µM | Modal MIC90 ([3]; NCPF 3209, 20 h): > 47 µM | Modal MIC50 (C. krusei NCPF 3876; NCPF 3876, 20 h): 23.5 µM | Modal MIC90 (C. krusei NCPF 3876; NCPF 3876, 20 h): 23.5 µM | Modal MIC50 (C. tropicalis NCPF 8760; NCPF 8760, 20 h): 2.9 µM | Modal MIC90 (C. tropicalis NCPF 8760; NCPF 8760, 20 h): 5.8 µM | Modal MIC50 (C. auris TDG 1912; TDG 1912, 20 h): > 47 µM | Modal MIC90 (C. auris TDG 1912; TDG 1912, 20 h): > 47 µM | % HaCat cell death at initial screening (256μg/mL) ± SD (HaCat cell line): 39.9 ±12.3% and 39.9% | Modal MIC (E. coli LEC001; LEC001, 20 h): 2.9 µM | Modal MIC (E. coli NCTC 12923; NCTC 12923, 20 h): 2.9 µM | Modal MIC (P. aeruginosa NCTC 13437; NCTC 13437, 20 h): 23.5 µM | Modal MIC (A. baumannii ATCC 17978; ATCC 17978, 20 h): 1.5 µM | Modal MIC (A. baumannii AYE; AYE, 20 h): 2.9 µM | Modal MIC (K. pneumoniae M6; M6, 20 h): 11.8 µM | Modal MIC (K. pneumoniae NCTC 13368; NCTC 13368, 20 h): 11.8 µM

CC[C@H](C)[C@H](NC(=O)[C@H](Cc1c[nH]c2ccccc12)NC(=O)[C@H](CC(=O)O)NC(=O)[C@H](Cc1c[nH]c2ccccc12)NC(=O)[C@@H](NC(=O)[C@H](CCCCN)NC(=O)CN)C(C)C)C(=O)N[C@@H](CCCCN)C(=O)N[C@@H](CO)C(=O)N[C@H](C(=O)N[C@@H](C)C(=O)N[C@@H](CCCCN)C(=O)N[C@@H](CCCCN)C(=O)N[C@@H](CC(C)C)C(=O)N[C@@H](Cc1c[nH]c2ccccc12)C(=O)N[C@@H](CC(N)=O)C(N)=O)[C@@H](C)O [Opis16a] (H-GKVWDWIKSTAKKLWN-NH2)
Modal MIC ([1]; S. aureus (MRSA) NCTC 13616 (R), shown in µM): 2 µM | Modal MIC (S. aureus (MRSA) USA300; S. aureus (MRSA) USA300 (R), shown in µM): 4 µM | Modal MIC (S. aureus (MRSA) 1199B): 2 µM | Modal MIC ([2]; S. aureus (MSSA) ATCC 9144 (S), shown in µM): 1 µM | Modal MIC50 (C. glabrata NCPF 8018; [4]): 64.7 µM | Modal MIC90 (C. glabrata NCPF 8018; [4]): 64.7 µM | Modal MIC50 (C. albicans NCPF 3281; [5]): 32.4 µM | Modal MIC90 (C. albicans NCPF 3281; [5]): 64.7 µM | Modal MIC50 [3, 6]: 32.4 µM | Modal MIC90 [3, 6]: 64.7 µM | Modal MIC50 (C. krusei NCPF 3876; [7]): 16.2 µM | Modal MIC90 (C. krusei NCPF 3876; [7]): 16.2 µM | Modal MIC50 (C. tropicalis NCPF 8760; [8]): 4 µM | Modal MIC90 (C. tropicalis NCPF 8760; [8]): 4 µM | Modal MIC50 (C. auris TDG 1912; C. auris TDG 1912, 50% growth inhibition, RPMI 1640 + 2% glucose, 37 °C, 20 h, OD600): > 128 µg/mL | Modal MIC90 (C. auris TDG 1912; C. auris TDG 1912, 90% growth inhibition, RPMI 1640 + 2% glucose, 37 °C, 20 h, OD600): > 128 µg/mL | Modal MIC50 (C. auris TDG 1912; C. auris TDG 1912, shown in µM): > 64.7 µM | Modal MIC90 (C. auris TDG 1912; C. auris TDG 1912, shown in µM): > 64.7 µM | HC10 (concentration causing 10% hemolysis) (human erythrocytes): 155 µg/mL | HC50 (concentration causing 50% hemolysis) (human erythrocytes): > 256 µg/mL | Modal MIC (E. coli LEC001; E. coli LEC001 (R), shown in µM): 2 µM | Modal MIC (E. coli NCTC 12923; E. coli NCTC 12923 (S), shown in µM): 2 µM | Modal MIC (P. aeruginosa NCTC 13437; P. aeruginosa NCTC 13437 (R), shown in µM): 16.2 µM | Modal MIC (P. aeruginosa PAO1): 64.7 µM | Modal MIC (A. baumannii ATCC 17978; A. baumannii ATCC 17978 (S), shown in µM): 1 µM | Modal MIC (A. baumannii AYE; A. baumannii AYE (R), shown in µM): 1 µM | Modal MIC (K. pneumoniae M6; K. pneumoniae M6 (S), shown in µM): 4 µM | Modal MIC (K. pneumoniae NCTC 13368; K. pneumoniae NCTC 13368 (R), shown in µM): 8.1 µM
